Experimental data from patent US20140179664A1, “Heterocyclyl Pyrimidine Analogues As JAK Inhibitors” (Cellzome Limited, priority 2011, published 2014).

Key:
Assay type in all cases: binding
JAK2 = biological target: T1, JAK2 (Homo sapiens, UniProt O60674); experiment: Kinobeads assay, JAK2; details: mixed Molt4/Ramos lysate, read-out: Inhibition values (IC50) JAK2
T1 construct: endogenous in cells; host or cells: Molt4 (ATCC CRL-1582) and Ramos (ATCC CRL-1596), mixed lysate 1:2
Procedure: (§1) The compounds of the present invention as described in the previous examples were tested in a Kinobeads™ assay as described for ZAP-70 (WO-A 2007/137867). Briefly, test compounds (at various concentrations) and the affinity matrix with the immobilized aminopyrido-pyrimidine ligand 24 were added to cell lysate aliquots and allowed to bind to the proteins in the lysate sample. After the incubation time the beads with captured proteins were separated from the lysate. Bound proteins were then eluted and the presence of JAK1, JAK2, JAK3 and TYK2 was detected and quantified using specific antibodies in a dot blot procedure and the Odyssey infrared detection system. Dose response curves for individual kinases were generated and IC50 values calculated. Kinobeads™ assays for ZAP-70 (WO-A 2007/137867) and for kinase selectivity profiling (WO-A 2006/134056) have been previously described.
(§2) The affinity matrix was washed two times with 15 mL of lx DP buffer containing 0.2% NP40 (IGEPAL® CA-630, Sigma, #13021) and then resuspended in 1×DP buffer containing 0.2% NP40 (3% beads slurry).
(§3) 5×DP buffer: 250 mM Tris-HCl pH 7.4, 25% Glycerol, 7.5 mM MgCl2, 750 mM NaCl, 5 mM Na3VO4; filter the 5×DP buffer through a 0.22 μm filter and store in aliquots at −80° C. The 5×DP buffer is diluted with H2O to 1×DP buffer containing 1 mM DTT and 25 mM NaF.
(§4) Stock solutions of test compounds were prepared in DMSO. In a 96 well plate […] solution of diluted test compounds at 5 mM in DMSO were prepared. Starting with this solution a 1:3 dilution series (9 steps) was prepared. For control experiments (no test compound) a buffer containing 2% DMSO was used.
(§5) Molt4 cells (ATCC catalogue number CRL-1582) and Ramos cells (ATCC catalogue number CRL-1596) were grown in 1 L Spinner flasks (Integra Biosciences, #182101) in suspension in RPMI 1640 medium (Invitrogen, #21875-034) supplemented with 10% Fetal Bovine Serum (Invitrogen) at a density between 0.15×10^6 and 1.2×10^6 cells/mL. Cells were harvested by centrifugation, washed once with 1×PBS buffer (Invitrogen, #14190-094) and cell pellets were frozen in liquid nitrogen and subsequently stored at −80° C. Cells were homogenized in a Potter S homogenizer in lysis buffer: 50 mM Tris-HCl, 0.8% NP40, 5% glycerol, 150 mM NaCl, 1.5 mM MgCl2, 25 mM NaF, 1 mM sodium vanadate, 1 mM DTT, pH 7.5. One complete EDTA-free tablet (protease inhibitor cocktail, Roche Diagnostics, 1873580) per 25 mL buffer was added. The material was dounced 10 times using a mechanized POTTER S, transferred to 50 mL falcon tubes, incubated for 30 minutes on ice and spun down for 10 minutes at 20,000 g at 4° C. (10,000 rpm in Sorvall SLA600, precooled). The supernatant was transferred to an ultracentrifuge (UZ)-polycarbonate tube (Beckmann, 355654) and spun for 1 hour at 100.000 g at 4° C. (33.500 rpm in Ti50.2, precooled). The supernatant was transferred again to a fresh 50 mL falcon tube, the protein concentration was determined by a Bradford assay (BioRad) and samples containing 50 mg of protein per aliquot were prepared. The samples were immediately used for experiments or frozen in liquid nitrogen and stored frozen at −80° C.
(§6) Cell lysate (approximately 50 mg protein per plate) was thawed in a water bath at room temperature and then stored on ice. To the thawed cell lysate 1×DP 0.8% NP40 buffer containing protease inhibitors (1 tablet for 25 mL buffer; EDTA-free protease inhibitor cocktail; Roche Diagnostics 1873580) was added in order to reach a final protein concentration of 10 mg/mL total protein. The diluted cell lysate was stored on ice. Mixed Molt4/Ramos lysate was prepared by combining one volume of Molt4 lysate and two volumes of Ramos lysate (ratio 1:2).
(§7) To a 96 well filter plate (Multiscreen HTS, BV Filter Plates, Millipore #MSBVN1250) were added per well: 100 μL affinity matrix (3% beads slurry), […], of compound solution, and 50 μL of diluted lysate. […]

JAK1 = biological target: T2, JAK1 (Homo sapiens, UniProt P23458); experiment: Kinobeads assay, JAK1; details: mixed Molt4/Ramos lysate, read-out: Inhibition values (IC50) JAK1
T2 construct: endogenous in cells; host or cells: Molt4 (ATCC CRL-1582) and Ramos (ATCC CRL-1596), mixed lysate 1:2
T2 sequence (P23458 whole entry): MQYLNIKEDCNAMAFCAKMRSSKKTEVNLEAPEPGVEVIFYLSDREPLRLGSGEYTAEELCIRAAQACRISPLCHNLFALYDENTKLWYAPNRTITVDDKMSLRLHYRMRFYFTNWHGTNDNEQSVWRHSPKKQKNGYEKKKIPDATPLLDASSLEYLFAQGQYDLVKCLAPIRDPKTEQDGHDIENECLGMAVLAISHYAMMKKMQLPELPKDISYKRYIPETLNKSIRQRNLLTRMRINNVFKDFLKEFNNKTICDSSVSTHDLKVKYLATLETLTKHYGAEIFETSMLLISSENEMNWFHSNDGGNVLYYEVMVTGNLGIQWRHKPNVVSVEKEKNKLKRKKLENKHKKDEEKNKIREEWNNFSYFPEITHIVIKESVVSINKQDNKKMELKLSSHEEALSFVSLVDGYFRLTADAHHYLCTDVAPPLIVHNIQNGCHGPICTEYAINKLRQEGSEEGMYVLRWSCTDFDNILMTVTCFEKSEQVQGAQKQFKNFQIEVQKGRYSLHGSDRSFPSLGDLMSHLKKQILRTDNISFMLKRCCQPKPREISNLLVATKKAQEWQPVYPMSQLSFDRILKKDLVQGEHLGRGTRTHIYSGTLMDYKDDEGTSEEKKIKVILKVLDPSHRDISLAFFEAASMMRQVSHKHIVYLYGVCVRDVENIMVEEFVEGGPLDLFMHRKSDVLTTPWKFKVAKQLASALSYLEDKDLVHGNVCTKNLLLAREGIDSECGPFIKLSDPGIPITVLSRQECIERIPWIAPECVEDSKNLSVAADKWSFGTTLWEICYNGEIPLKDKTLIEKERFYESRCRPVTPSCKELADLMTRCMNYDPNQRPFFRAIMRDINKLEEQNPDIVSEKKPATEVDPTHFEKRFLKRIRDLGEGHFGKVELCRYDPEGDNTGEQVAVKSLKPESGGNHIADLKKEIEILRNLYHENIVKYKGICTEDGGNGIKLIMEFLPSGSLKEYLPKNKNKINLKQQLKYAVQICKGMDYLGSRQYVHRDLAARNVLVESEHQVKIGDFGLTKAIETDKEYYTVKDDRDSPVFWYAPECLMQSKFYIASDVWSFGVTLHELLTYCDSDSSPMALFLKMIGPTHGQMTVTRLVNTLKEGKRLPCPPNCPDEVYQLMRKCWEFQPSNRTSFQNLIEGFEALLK
Procedure: After the incubation time the beads with captured proteins were separated from the lysate. Bound proteins were then eluted and the presence of JAK1, JAK2, JAK3 and TYK2 was detected and quantified using specific antibodies in a dot blot procedure and the Odyssey infrared detection system. Dose response curves for individual kinases were generated and IC50 values calculated.
as §3
Stock solutions of test compounds were prepared in DMSO. […] Starting with this solution a 1:3 dilution series (9 steps) was prepared. For control experiments (no test compound) a buffer containing 2% DMSO was used.
Cells were homogenized in a Potter S homogenizer in lysis buffer: 50 mM Tris-HCl, 0.8% NP40, 5% glycerol, 150 mM NaCl, 1.5 mM MgCl2, 25 mM NaF, 1 mM sodium vanadate, 1 mM DTT, pH 7.5. […] The material was dounced 10 times using a mechanized POTTER S, transferred to 50 mL falcon tubes, incubated for 30 minutes on ice and spun down for 10 minutes at 20,000 g at 4° C. (10,000 rpm in Sorvall SLA600, precooled). […] (33.500 rpm in Ti50.2, precooled). The supernatant was transferred again to a fresh 50 mL falcon tube, the protein concentration was determined by a Bradford assay (BioRad) and samples containing 50 mg of protein per aliquot were prepared. The samples were immediately used for experiments or frozen in liquid nitrogen and stored frozen at −80° C.
Cell lysate (approximately 50 mg protein per plate) was thawed in a water bath at room temperature and then stored on ice. […] The diluted cell lysate was stored on ice. Mixed Molt4/Ramos lysate was prepared by combining one volume of Molt4 lysate and two volumes of Ramos lysate (ratio 1:2).
Plates were sealed and incubated for 3 hours in a cold room on a plate shaker (Heidolph tiramax 1000) at 750 rpm. Afterwards the plate was washed 3 times with 230 μL washing buffer (1×DP 0.4% NP40). […] The eluate was frozen quickly at −80° C. and stored at −20° C.
Afterwards the membrane was washed twice for 10 minutes with PBS buffer containing 0.2% Tween 20 at room temperature. […] Afterwards the membrane was washed twice for 10 minutes each with 1×PBS buffer containing 0.2% Tween 20 at room temperature. Then the membrane was rinsed once with PBS buffer to remove residual Tween 20. The membrane was kept in PBS buffer at 4° C. and then scanned with the Odyssey instrument. Fluorescence signals were recorded and analysed according to the instructions of the manufacturer.

TYK2 = biological target: T3, TYK2 (Homo sapiens, UniProt P29597); experiment: Kinobeads assay, TYK2; details: mixed Molt4/Ramos lysate, read-out: Inhibition values (IC50) TYK2
T3 construct: endogenous in cells; host or cells: Molt4 (ATCC CRL-1582) and Ramos (ATCC CRL-1596), mixed lysate 1:2
T3 sequence (P29597 whole entry): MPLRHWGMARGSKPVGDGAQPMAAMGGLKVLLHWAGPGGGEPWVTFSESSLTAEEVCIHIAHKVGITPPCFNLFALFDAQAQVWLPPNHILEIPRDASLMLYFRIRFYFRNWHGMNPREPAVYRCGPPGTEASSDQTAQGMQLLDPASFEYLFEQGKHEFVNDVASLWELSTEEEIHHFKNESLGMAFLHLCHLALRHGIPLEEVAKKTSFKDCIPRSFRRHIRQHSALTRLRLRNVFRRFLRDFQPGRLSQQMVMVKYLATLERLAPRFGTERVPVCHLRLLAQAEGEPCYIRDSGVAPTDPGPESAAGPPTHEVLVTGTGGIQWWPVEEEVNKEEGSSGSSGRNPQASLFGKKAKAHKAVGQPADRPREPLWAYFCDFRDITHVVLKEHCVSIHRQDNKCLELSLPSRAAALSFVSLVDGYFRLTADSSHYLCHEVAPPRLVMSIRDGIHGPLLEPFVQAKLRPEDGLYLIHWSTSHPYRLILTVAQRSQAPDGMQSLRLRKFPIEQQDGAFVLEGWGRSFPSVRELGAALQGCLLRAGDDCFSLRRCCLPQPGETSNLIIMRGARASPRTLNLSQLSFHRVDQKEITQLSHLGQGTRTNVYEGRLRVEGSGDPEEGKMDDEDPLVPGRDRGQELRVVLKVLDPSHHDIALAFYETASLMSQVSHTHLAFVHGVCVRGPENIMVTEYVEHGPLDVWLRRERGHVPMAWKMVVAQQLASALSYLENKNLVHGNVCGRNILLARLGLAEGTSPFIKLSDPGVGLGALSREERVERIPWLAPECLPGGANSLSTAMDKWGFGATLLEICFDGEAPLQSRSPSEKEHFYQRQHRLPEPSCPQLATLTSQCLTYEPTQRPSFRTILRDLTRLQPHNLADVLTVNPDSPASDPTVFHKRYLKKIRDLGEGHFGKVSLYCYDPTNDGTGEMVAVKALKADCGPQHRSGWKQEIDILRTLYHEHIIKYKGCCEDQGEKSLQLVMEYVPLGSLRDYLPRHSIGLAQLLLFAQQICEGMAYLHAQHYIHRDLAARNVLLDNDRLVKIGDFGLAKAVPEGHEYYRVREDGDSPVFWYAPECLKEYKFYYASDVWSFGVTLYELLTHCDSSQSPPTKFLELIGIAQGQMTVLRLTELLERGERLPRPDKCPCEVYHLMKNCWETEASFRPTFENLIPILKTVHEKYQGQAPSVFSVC
Procedure: as §1, §2, §3, §4, §5, §6, §7

T1 sequence (O60674 whole entry): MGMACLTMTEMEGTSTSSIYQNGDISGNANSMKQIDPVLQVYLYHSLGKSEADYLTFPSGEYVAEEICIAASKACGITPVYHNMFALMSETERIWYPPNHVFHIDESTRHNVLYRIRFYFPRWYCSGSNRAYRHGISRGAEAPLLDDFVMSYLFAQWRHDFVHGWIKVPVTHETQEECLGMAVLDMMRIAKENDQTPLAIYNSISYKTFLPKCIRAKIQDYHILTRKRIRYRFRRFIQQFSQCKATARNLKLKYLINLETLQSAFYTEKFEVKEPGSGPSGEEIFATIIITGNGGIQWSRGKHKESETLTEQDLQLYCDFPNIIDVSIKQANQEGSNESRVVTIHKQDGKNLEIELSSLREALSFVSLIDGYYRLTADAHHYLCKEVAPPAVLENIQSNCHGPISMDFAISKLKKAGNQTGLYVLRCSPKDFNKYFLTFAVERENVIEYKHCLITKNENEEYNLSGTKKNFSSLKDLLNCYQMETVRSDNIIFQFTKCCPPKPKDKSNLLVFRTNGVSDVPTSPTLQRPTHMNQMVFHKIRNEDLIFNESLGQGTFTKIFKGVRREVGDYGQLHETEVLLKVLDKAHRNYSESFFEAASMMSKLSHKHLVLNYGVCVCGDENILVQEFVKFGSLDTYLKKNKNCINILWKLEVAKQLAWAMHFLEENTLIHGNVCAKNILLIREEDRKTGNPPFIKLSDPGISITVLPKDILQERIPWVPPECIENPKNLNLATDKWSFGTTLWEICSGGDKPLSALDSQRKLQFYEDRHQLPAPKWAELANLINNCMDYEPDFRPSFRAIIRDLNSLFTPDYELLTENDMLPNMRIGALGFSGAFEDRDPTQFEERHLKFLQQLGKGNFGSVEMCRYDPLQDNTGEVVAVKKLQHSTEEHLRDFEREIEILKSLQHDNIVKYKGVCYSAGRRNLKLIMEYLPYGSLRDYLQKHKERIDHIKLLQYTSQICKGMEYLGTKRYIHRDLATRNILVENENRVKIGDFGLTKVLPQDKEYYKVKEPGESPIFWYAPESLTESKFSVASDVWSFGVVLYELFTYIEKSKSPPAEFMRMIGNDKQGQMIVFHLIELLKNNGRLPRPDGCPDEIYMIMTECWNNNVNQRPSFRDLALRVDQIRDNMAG

Structure (SMILES) | IC50 (JAK2) [nM] | IC50 (JAK1) [nM] | IC50 (TYK2) [nM]
Cn1cc(Nc2ncc(Cl)c(N[C@H](CO)c3ccccc3)n2)cn1 [Compound 4] | 1000 to 10000 | 1000 to 10000 | 1000 to 10000
CC[C@@H](Nc1nc(Nc2cnn(C)c2)ncc1Cl)c1ccccc1 [Compound 5] | 1000 to 10000 | 1000 to 10000 | ≥ 10000
Cn1cc(Nc2ncc(C(F)(F)F)c(N[C@H](CO)c3ccccc3)n2)cn1 [Compound 6] | ≥ 10000 | > 10000 | ≥ 10000
Cn1cc(Nc2ncc(Cl)c(NC(C)(CO)c3ccccc3)n2)cn1 (stereo not drawn) [Compound 7] | ≥ 10000 | 1000 to 10000 | 1000 to 10000
Cn1cc(Nc2ncc(C(F)(F)F)c(NC(C)(CO)c3ccccc3)n2)cn1 (stereo not drawn) [Compound 8] | ≥ 10000 | > 10000 | ≥ 10000
OCCn1cc(Nc2ncc(Cl)c(N[C@H](CO)c3ccccc3)n2)cn1 [Compound 9] | 1000 to 10000 | 100 to 1000 | 1000 to 10000
OCCn1cc(Nc2ncc(F)c(N[C@H](CO)c3ccccc3)n2)cn1 [Compound 10] | ≥ 10000 | 1000 to 10000 | 1000 to 10000
Cn1cc(-c2cccc(C(CO)Nc3nc(Nc4cnn(CCO)c4)ncc3Cl)c2)cn1 (stereo not drawn) [Compound 94] | ≥ 10000 | 1000 to 10000 | ≥ 10000
CCn1cc(Nc2ncc(Cl)c(N[C@H](CO)c3ccccc3OC)n2)cn1 [Compound 95] | 100 to 1000 | 100 to 1000 | 1000 to 10000
CCn1cc(Nc2ncc(Cl)c(N[C@H](CO)c3cccc(OC)c3)n2)cn1 [Compound 96] | ≥ 10000 | 1000 to 10000 | 1000 to 10000
CCn1cc(Nc2ncc(Cl)c(N[C@H](CO)c3cccnc3)n2)cn1 [Compound 97] | 1000 to 10000 | 1000 to 10000 | 1000 to 10000
CNC(=O)Cn1cc(Nc2ncc(Cl)c(N[C@H](CO)c3ccccc3OC)n2)cn1 [Compound 98] | 1000 to 10000 | 100 to 1000 | 100 to 1000
CNC(=O)Cn1cc(Nc2ncc(Cl)c(N[C@H](CO)c3cccc(OC)c3)n2)cn1 [Compound 99] | ≥ 10000 | 1000 to 10000 | 1000 to 10000
CNC(=O)Cn1cc(Nc2ncc(Cl)c(N[C@H](CO)c3ccccc3F)n2)cn1 [Compound 100] | 1000 to 10000 | 100 to 1000 | 1000 to 10000
COc1ccccc1[C@@H](CO)Nc1nc(Nc2cnn(CC(=O)N3CCOCC3)c2)ncc1Cl [Compound 101] | 1000 to 10000 | 100 to 1000 | < 100
COc1cccc([C@@H](CO)Nc2nc(Nc3cnn(CC(=O)N4CCOCC4)c3)ncc2Cl)c1 [Compound 102] | ≥ 10000 | 100 to 1000 | 100 to 1000

Structure (SMILES) | IC50 (JAK2) [nM] | IC50 (JAK1) [nM] | IC50 (TYK2) [nM]
O=C(Cn1cc(Nc2ncc(Cl)c(N[C@H](CO)c3ccccc3F)n2)cn1)N1CCOCC1 [Compound 103] | 1000 to 10000 | 100 to 1000 | 100 to 1000
O=C(Cn1cc(Nc2ncc(Cl)c(N[C@H](CO)c3cccnc3)n2)cn1)N1CCOCC1 [Compound 104] | 1000 to 10000 | 100 to 1000 | 100 to 1000
COc1ccccc1[C@@H](CO)Nc1nc(Nc2cnn(C(C)C)c2)ncc1Cl [Compound 105] | 100 to 1000 | 1000 to 10000 | 1000 to 10000
COc1cccc([C@@H](CO)Nc2nc(Nc3cnn(C(C)C)c3)ncc2Cl)c1 [Compound 106] | 1000 to 10000 | > 10000 | 1000 to 10000
CC(C)n1cc(Nc2ncc(Cl)c(N[C@H](CO)c3cccnc3)n2)cn1 [Compound 107] | 1000 to 10000 | 1000 to 10000 | 1000 to 10000
NC(=O)Cn1cc(Nc2ncc(F)c(N[C@H](CO)c3ccccc3)n2)cn1 [Compound 108] | ≥ 10000 | 1000 to 10000 | 1000 to 10000
CCn1cc(Nc2ncc(Cl)c(N[C@H](CO)c3ccccc3F)n2)cn1 [Compound 109] | 1000 to 10000 | 1000 to 10000 | 1000 to 10000
CC(C)n1cc(Nc2ncc(Cl)c(N[C@H](CO)c3ccccc3F)n2)cn1 [Compound 110] | 100 to 1000 | 1000 to 10000 | 1000 to 10000
CNC(=O)Cn1cc(Nc2ncc(F)c(N[C@H](CO)c3ccccc3)n2)cn1 [Compound 111] | ≥ 10000 | 1000 to 10000 | 1000 to 10000
O=C(Cn1cc(Nc2ncc(F)c(N[C@H](CO)c3ccccc3)n2)cn1)N1CCOCC1 [Compound 112] | ≥ 10000 | 1000 to 10000 | 100 to 1000
NCCCn1cc(Nc2ncc(Cl)c(N[C@H](CO)c3ccccc3)n2)cn1 [Compound 113] | 1000 to 10000 | 1000 to 10000 | 1000 to 10000
CC(C)OCCn1cc(Nc2ncc(Cl)c(N[C@H](CO)c3ccccc3)n2)cn1 [Compound 114] | 1000 to 10000 | 1000 to 10000 | 1000 to 10000
CC(C)NC(=O)Cn1cc(Nc2ncc(Cl)c(N[C@H](CO)c3ccccc3F)n2)cn1 [Compound 115] | 1000 to 10000 | 100 to 1000 | 100 to 1000
C[C@@H](CO)NC(=O)Cn1cc(Nc2ncc(Cl)c(N[C@H](CO)c3ccccc3F)n2)cn1 [Compound 116] | 1000 to 10000 | 100 to 1000 | 100 to 1000
Cn1cc(Nc2ncc(Cl)c(NC(CO)c3ccccc3Cl)n2)cn1 (stereo not drawn) [Compound 117] | 1000 to 10000 | 1000 to 10000 | 1000 to 10000
NC(=O)Cn1cc(Nc2ncc(Cl)c(NC(CO)c3ccccc3Cl)n2)cn1 (stereo not drawn) [Compound 118] | 1000 to 10000 | 100 to 1000 | 100 to 1000
